Laboratory results as given in ChEMBL document CHEMBL1155773, “Effects of imipenem-cilastatin, ertapenem, piperacillin-tazobactam, and ceftriaxone treatments on persistence of intestinal colonization by extended-spectrum-beta-lactamase-producing Klebsiella pneumoniae strains in mice” (2007).
≈ marks a conversion by molar mass, not a printed value. Calls of active or inactive are those of the source. The calls are words filed in the database; no cut-off is given here.

What was measured:
Klebsiella pneumoniae [1] = experiment: Effect on extended-spectrum-beta-lactamase-producing Klebsiella pneumoniae P10045 infected in sc dosed CF1 mouse with high-density bacterial colonization administered daily for 9 days assessed as promotion of persistent bacterial overgrowth by measuring stool bacterial count; type: functional, organism-based
Klebsiella pneumoniae [2] = experiment: Antibacterial activity against extended-spectrum-beta-lactamase-producing Klebsiella pneumoniae P10045 by broth dilution method; type: functional
Klebsiella pneumoniae [3] = experiment: Effect on extended-spectrum-beta-lactamase-producing Klebsiella pneumoniae P62 infected in sc dosed CF1 mouse with high-density bacterial colonization administered daily for 9 days assessed as promotion of persistent bacterial overgrowth by measuring stool bacterial count; type: functional, organism-based
Klebsiella pneumoniae [4] = experiment: Antibacterial activity against extended-spectrum-beta-lactamase-producing Klebsiella pneumoniae isolate; type: functional
Klebsiella pneumoniae [5] = experiment: Antibacterial activity against extended-spectrum-beta-lactamase-producing Klebsiella pneumoniae P62 by broth dilution method; type: functional
Klebsiella pneumoniae [6] = experiment: Antibacterial activity against extended-spectrum-beta-lactamase-producing Klebsiella pneumoniae P62 infected in sc dosed CF1 mouse with high-density bacterial colonization administered daily for 9 days assessed as suppression of stool bacterial count; type: functional, organism-based
Klebsiella pneumoniae [7] = experiment: Antibacterial activity against extended-spectrum-beta-lactamase-producing Klebsiella pneumoniae P10045 infected in sc dosed CF1 mouse with high-density bacterial colonization administered daily for 9 days assessed as suppression of stool bacterial count; type: functional, organism-based

| Activity (Klebsiella pneumoniae [1]) | Activity (Klebsiella pneumoniae [3]) | Compound | MIC (Klebsiella pneumoniae [2]) [µg/mL] | MIC (Klebsiella pneumoniae [4]) [µg/mL] | MIC (Klebsiella pneumoniae [5]) [µg/mL] | Activity (Klebsiella pneumoniae [6]) | Activity (Klebsiella pneumoniae [7]) |
| --- | --- | --- | --- | --- | --- | --- | --- |
| Active | Active | CO/N=C(\C(=O)N[C@@H]1C(=O)N2C(C(=O)O)=C(CSc3nc(=O)c(O)nn3C)CS[C@H]12)c1csc(N)n1 [CEFTRIAXONE] | 78 (≈ 141 µM) | 4 (≈ 7.21 µM) | 4 (≈ 7.21 µM) | – | – |
| – | – | C[C@@H](O)[C@H]1C(=O)N2C(C(=O)O)=C(S[C@@H]3CN[C@H](C(=O)Nc4cccc(C(=O)O)c4)C3)[C@H](C)[C@H]12 [ERTAPENEM] | 0.25 (≈ 0.526 µM) | < 0.25 | < 0.25 | Active | Active |
